# Earlier results, collected in patent publication US20040037835A1, “Cytotoxic agents” (priority 1995, published 2004).
# Experiments:
# E. coli nitroreductase = E. coli nitroreductase (Escherichia coli, UniProt P38489)
# CHO cells = settings: in vitro co-culture of Walker cells and CHO cells
# Chain of E. coli nitroreductase (P38489 whole entry): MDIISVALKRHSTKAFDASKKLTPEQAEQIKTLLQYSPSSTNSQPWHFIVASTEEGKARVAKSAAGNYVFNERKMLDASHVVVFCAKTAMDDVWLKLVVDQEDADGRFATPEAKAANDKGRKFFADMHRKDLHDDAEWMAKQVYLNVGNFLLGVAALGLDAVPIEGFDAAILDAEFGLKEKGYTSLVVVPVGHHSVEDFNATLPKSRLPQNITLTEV
smiles,measurement,setting,value
"NC(=O)c1cc(N2CC2)c([N+](=O)[O-])cc1[N+](=O)[O-] [CB 1954, 5-(aziridin-1-yl)-2,4-dinitrobenzamide]",substrate for the enzyme,E. coli nitroreductase,poor substrate
same,bystander effect: kill of CHO cells that do not contain nitroreductase,CHO cells,substantially killed
